Measured values published in PubChem BioAssay AID1259407 (Chemical Carcinogenesis Research Information System (CCRIS), 2018).
The source made the active and inactive calls. How the calls were made is not given here.

Tested on: CCRIS mutagenicity, Ames/micronucleus/aberration tests
Assay: CCRIS mutagenicity studies
[1] = Test System: AMES SALMONELLA TYPHIMURIUM, Strain/Indicator: TA100, Metabolic Activation: NONE, Method: STANDARD PLATE

C=CC[Si](C)(C)C
mutagenic call (Test System: AMES SALMONELLA TYPHIMURIUM, Strain/Indicator: TA98, Metabolic Activation: HAMSTER, LIVER, S-9, AROCLOR 1254 (10%), Method: PREINCUBATION): inactive; negative | mutagenic call (Test System: AMES SALMONELLA TYPHIMURIUM, Strain/Indicator: TA98, Metabolic Activation: NONE, Method: PREINCUBATION): inactive; negative | mutagenic call (Test System: AMES SALMONELLA TYPHIMURIUM, Strain/Indicator: TA98, Metabolic Activation: RAT, LIVER, S-9, AROCLOR 1254 (10%), Method: PREINCUBATION): inactive; negative | mutagenic call (Test System: AMES SALMONELLA TYPHIMURIUM, Strain/Indicator: TA100, Metabolic Activation: HAMSTER, LIVER, S-9, AROCLOR 1254 (10%), Method: PREINCUBATION): inactive; negative | mutagenic call (Test System: AMES SALMONELLA TYPHIMURIUM, Strain/Indicator: TA100, Metabolic Activation: NONE, Method: PREINCUBATION): inactive; negative | mutagenic call (Test System: AMES SALMONELLA TYPHIMURIUM, Strain/Indicator: TA100, Metabolic Activation: RAT, LIVER, S-9, AROCLOR 1254 (10%), Method: PREINCUBATION): inactive; negative | mutagenic call (Test System: AMES SALMONELLA TYPHIMURIUM, Strain/Indicator: TA1535, Metabolic Activation: HAMSTER, LIVER, S-9, AROCLOR 1254 (10%), Method: PREINCUBATION): inactive; negative | mutagenic call (Test System: AMES SALMONELLA TYPHIMURIUM, Strain/Indicator: TA1535, Metabolic Activation: NONE, Method: PREINCUBATION): inactive; negative | mutagenic call (Test System: AMES SALMONELLA TYPHIMURIUM, Strain/Indicator: TA1535, Metabolic Activation: RAT, LIVER, S-9, AROCLOR 1254 (10%), Method: PREINCUBATION): inactive; negative | mutagenic call (Test System: AMES SALMONELLA TYPHIMURIUM, Strain/Indicator: TA1537, Metabolic Activation: HAMSTER, LIVER, S-9, AROCLOR 1254 (10%), Method: PREINCUBATION): inactive; negative | mutagenic call (Test System: AMES SALMONELLA TYPHIMURIUM, Strain/Indicator: TA1537, Metabolic Activation: NONE, Method: PREINCUBATION): inactive; negative | mutagenic call (Test System: AMES SALMONELLA TYPHIMURIUM, Strain/Indicator: TA1537, Metabolic Activation: RAT, LIVER, S-9, AROCLOR 1254 (10%), Method: PREINCUBATION): inactive; negative | mutagenic call (Test System: AMES SALMONELLA TYPHIMURIUM, Strain/Indicator: TA1538, Metabolic Activation: HAMSTER, LIVER, S-9, AROCLOR 1254 (10%), Method: PREINCUBATION): inactive; negative | mutagenic call (Test System: AMES SALMONELLA TYPHIMURIUM, Strain/Indicator: TA1538, Metabolic Activation: NONE, Method: PREINCUBATION): inactive; negative | mutagenic call (Test System: AMES SALMONELLA TYPHIMURIUM, Strain/Indicator: TA1538, Metabolic Activation: RAT, LIVER, S-9, AROCLOR 1254 (10%), Method: PREINCUBATION): inactive; negative | mutagenic call (Test System: MOUSE LYMPHOMA, Strain/Indicator: L5178Y (TK+/TK-), Metabolic Activation: NONE, Method: SUSPENSION/PLATE): inactive; negative. reevaluation of results: negative | mutagenic call (Test System: MOUSE LYMPHOMA, Strain/Indicator: L5178Y (TK+/TK-), Metabolic Activation: RAT, LIVER, S-9, AROCLOR 1254, Method: SUSPENSION/PLATE): inactive; negative. reevaluation of results: negative

N[C@H](CS)C(=O)O
mutagenic call (Test System: AMES SALMONELLA TYPHIMURIUM, Strain/Indicator: TA92, Metabolic Activation: NONE, Method: STANDARD PLATE): inactive; negative | mutagenic call (Test System: AMES SALMONELLA TYPHIMURIUM, Strain/Indicator: TA92, Metabolic Activation: RAT, KIDNEY, S-9, Method: STANDARD PLATE): inactive; negative | mutagenic call (Test System: AMES SALMONELLA TYPHIMURIUM, Strain/Indicator: TA92, Metabolic Activation: RAT, LIVER, S-9, Method: STANDARD PLATE): inactive; negative | mutagenic call [1]: inactive; negative | mutagenic call (Test System: AMES SALMONELLA TYPHIMURIUM, Strain/Indicator: TA100, Metabolic Activation: RAT, KIDNEY, S-9, Method: STANDARD PLATE): inactive; negative | mutagenic call (Test System: AMES SALMONELLA TYPHIMURIUM, Strain/Indicator: TA100, Metabolic Activation: RAT, LIVER, S-9, Method: STANDARD PLATE): inactive; negative

O=C/C=C/C=C\c1ccc([N+](=O)[O-])cc1
mutagenic call (Test System: AMES SALMONELLA TYPHIMURIUM, Strain/Indicator: 98(NR), Metabolic Activation: HAMSTER, LIVER, S-9, AROCLOR 1254, Method: STANDARD PLATE): active; positive | mutagenic call (Test System: AMES SALMONELLA TYPHIMURIUM, Strain/Indicator: 98(NR), Metabolic Activation: NONE, Method: STANDARD PLATE): active; positive | mutagenic call (Test System: AMES SALMONELLA TYPHIMURIUM, Strain/Indicator: 98(NR), Metabolic Activation: RAT, LIVER, S-9, AROCLOR 1254, Method: STANDARD PLATE): active; positive | mutagenic call (Test System: AMES SALMONELLA TYPHIMURIUM, Strain/Indicator: 100(NR), Metabolic Activation: HAMSTER, LIVER, S-9, AROCLOR 1254, Method: STANDARD PLATE): active; positive | mutagenic call (Test System: AMES SALMONELLA TYPHIMURIUM, Strain/Indicator: 100(NR), Metabolic Activation: NONE, Method: STANDARD PLATE): active; positive | mutagenic call (Test System: AMES SALMONELLA TYPHIMURIUM, Strain/Indicator: 100(NR), Metabolic Activation: RAT, LIVER, S-9, AROCLOR 1254, Method: STANDARD PLATE): active; positive | mutagenic call (Test System: AMES SALMONELLA TYPHIMURIUM, Strain/Indicator: TA98, Metabolic Activation: HAMSTER, LIVER, S-9, AROCLOR 1254, Method: STANDARD PLATE): active; positive | mutagenic call (Test System: AMES SALMONELLA TYPHIMURIUM, Strain/Indicator: TA98, Metabolic Activation: NONE, Method: STANDARD PLATE): active; positive | mutagenic call (Test System: AMES SALMONELLA TYPHIMURIUM, Strain/Indicator: TA98, Metabolic Activation: RAT, LIVER, S-9, AROCLOR 1254, Method: STANDARD PLATE): active; positive | mutagenic call (Test System: AMES SALMONELLA TYPHIMURIUM, Strain/Indicator: TA100, Metabolic Activation: HAMSTER, LIVER, S-9, AROCLOR 1254, Method: STANDARD PLATE): active; positive | mutagenic call [1]: active; positive | mutagenic call (Test System: AMES SALMONELLA TYPHIMURIUM, Strain/Indicator: TA100, Metabolic Activation: RAT, LIVER, S-9, AROCLOR 1254, Method: STANDARD PLATE): active; positive | mutagenic call (Test System: AMES SALMONELLA TYPHIMURIUM, Strain/Indicator: TA1535, Metabolic Activation: HAMSTER, LIVER, S-9, AROCLOR 1254, Method: STANDARD PLATE): active; positive | mutagenic call (Test System: AMES SALMONELLA TYPHIMURIUM, Strain/Indicator: TA1535, Metabolic Activation: NONE, Method: STANDARD PLATE): active; positive | mutagenic call (Test System: AMES SALMONELLA TYPHIMURIUM, Strain/Indicator: TA1535, Metabolic Activation: RAT, LIVER, S-9, AROCLOR 1254, Method: STANDARD PLATE): active; positive | mutagenic call (Test System: AMES SALMONELLA TYPHIMURIUM, Strain/Indicator: TA1537, Metabolic Activation: NONE, Method: STANDARD PLATE): active; positive | mutagenic call (Test System: AMES SALMONELLA TYPHIMURIUM, Strain/Indicator: TA1537, Metabolic Activation: RAT, LIVER, S-9, AROCLOR 1254, Method: STANDARD PLATE): active; positive | mutagenic call (Test System: Mouse lymphoma, Strain/Indicator: L5178Y (tk+/tk-), Metabolic Activation: None, Method: Suspension/plate): active; equivocal (previous evaluation positive) | mutagenic call (Test System: Mouse lymphoma, Strain/Indicator: L5178Y (tk+/tk-), Metabolic Activation: Rat, Liver, S-9, Aroclor 1254, Method: Suspension/plate): inactive; negative
